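Following 48 hours of exposure in 96-well plates, responses at five concentrations were used to interpolate endpoints linearly. TGI: concentration producing complete growth inhibition.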
Assays:
Assay in all cases: growth of human tumour cells (NCI), 48 h
MDA-MB-231 breast = tested on: MDA-MB-231 breast
TK-10 renal = tested on: TK-10 renal
HCT-116 colon = tested on: HCT-116 colon
MDA-MB-435 = tested on: MDA-MB-435
SF-295 CNS = tested on: SF-295 CNS
SF-539 CNS = tested on: SF-539 CNS
ACHN renal = tested on: ACHN renal
EKVX NSCLC = tested on: EKVX NSCLC
OVCAR-4 ovarian = tested on: OVCAR-4 ovarian
SK-OV-3 ovarian = tested on: SK-OV-3 ovarian
HCC-2998 colon = tested on: HCC-2998 colon

| Structure (SMILES) | TGI (MDA-MB-231 breast) [µM] | TGI (TK-10 renal) [µM] | TGI (HCT-116 colon) [µM] | TGI (MDA-MB-435) [µM] | TGI (SF-295 CNS) [µM] | TGI (SF-539 CNS) [µM] | TGI (ACHN renal) [µM] | TGI (EKVX NSCLC) [µM] | TGI (OVCAR-4 ovarian) [µM] | TGI (SK-OV-3 ovarian) [µM] | TGI (HCC-2998 colon) [µM] |
| --- | --- | --- | --- | --- | --- | --- | --- | --- | --- | --- | --- |
| CCOC(=O)c1c(NC(=O)c2ccc(Br)cc2)sc2c1CCCC2 | > 100 | > 100 | > 100 | > 100 | > 100 | > 100 | > 100 | > 100 | – | – | – |
| CC(C)(C)N=c1n(C(C)(C)C)oc(=O)n1-c1ccccc1 | > 50 | > 50 | > 50 | > 50 | > 50 | > 50 | > 50 | > 50 | > 50 | > 50 | – |
| Cc1ccc(F)c2c(=O)cc(-c3ccccc3)[nH]c12 | – | > 100 | > 100 | – | > 100 | > 100 | > 100 | – | > 100 | > 100 | – |
| CCc1n[nH]c(=S)n1/N=C\c1ccc(-c2ccccc2[N+](=O)[O-])o1 | > 100 | > 100 | > 100 | 39.4 | > 100 | > 100 | > 100 | > 100 | > 100 | > 100 | – |
| CN(C)C(=O)Oc1ccc(C(=S)Nc2ccccc2)cc1Br | – | – | > 100 | 43.9 | > 100 | > 100 | > 100 | > 100 | > 100 | > 100 | > 100 |
| CC(C)c1cccc(C(C)C)c1NC(=O)C(=O)C1SC(=S)NC1=O (configuration not stated) | – | > 100 | > 100 | – | > 100 | > 100 | > 100 | > 100 | > 100 | > 100 | – |
| Cc1ccccc1NC(=O)CSc1nnc(Cc2ccccc2)o1 | – | > 100 | > 100 | – | > 100 | > 100 | > 100 | – | > 100 | > 100 | > 100 |
| CC(=O)C1=NN(c2ccccc2)C2(S1)SC(c1ccccc1)(c1ccccc1)c1ccccc12 (configuration not stated) | – | > 100 | > 100 | – | > 100 | > 100 | > 100 | > 100 | 79.6 | > 100 | > 100 |
| CC[C@H](C)[C@H]1NC(=O)[C@@H](NC(=O)[C@@H](CC(C)C)N(C)C(=O)C2CCCN2C(=O)[C@H](C)O)[C@@H](C)OC(=O)[C@H](Cc2ccccc2)N(C)C(=O)[C@@H]2CCCN2C(=O)[C@H](CC(C)C)NC(=O)[C@@H](C)C(=O)[C@H](C(C)C)OC(=O)C[C@@H]1O (some centres not stated) | – | 0.00848 | 0.00642 | – | 0.0134 | – | < 0.00625 | 0.524 | 0.0078 | 0.101 | 0.00678 |
| COc1nc(OC)nc(Sc2ccc(Sc3ccc(Sc4nc(OC)nc(OC)n4)cc3)cc2)n1 | – | > 100 | > 100 | – | > 100 | > 100 | > 100 | > 100 | > 100 | > 100 | > 100 |
| O=C1c2ccccc2C(=O)c2c(O)c(NCCNCCO)cc(O)c21 | – | 17.7 | 11.9 | – | 22.2 | 14.4 | 8.93 | 14.4 | 15.7 | – | 13.7 |
| Cc1cc(Cl)ccc1NC(=O)C(=O)Cc1occc(=O)c1O | – | > 100 | > 100 | – | > 100 | > 100 | > 100 | > 100 | > 100 | > 100 | > 100 |
| COC(=O)CNCC1OC2OC(C)(C)OC2C1N=[N+]=[N-] (configuration not stated) | – | > 100 | > 100 | > 100 | > 100 | > 100 | > 100 | > 100 | > 100 | > 100 | – |
| CC1(C)N=C(Oc2ccccc2)n2nccc2N1 | – | > 100 | > 100 | – | > 100 | > 100 | > 100 | > 100 | > 100 | > 100 | > 100 |
| Cc1nc2nn(C)cc2c(=O)n1/N=C/c1ccccc1 | – | > 100 | > 100 | – | > 100 | > 100 | > 100 | > 100 | > 100 | > 100 | > 100 |
| CCCOP(=S)(N1CC1)N1CC1 | – | > 100 | > 100 | – | > 100 | > 100 | > 100 | > 100 | > 100 | > 100 | > 100 |
| Cn1c(=O)sc2cc(C(=S)N3CCN(c4ccccc4)CC3)ccc21 | > 100 | > 100 | > 100 | > 100 | 53.9 | 61.4 | > 100 | > 100 | – | > 100 | – |
| Cc1cc(C)nc(NS(=O)(=O)c2ccc(NC(=O)c3cccc4c(N)c5ccccc5nc34)cc2)n1 | – | > 100 | > 100 | – | > 100 | > 100 | > 100 | > 100 | > 100 | > 100 | > 100 |

— PubChem BioAssay (NCI)
